52 compounds from PubChem BioAssay AID1996 can be followed below.

Converted amounts (≈) assume the structure as drawn. Some results are limits rather than exact numbers.

For this series the following is noted: buffer; pH 7.4; 200.0 µM.
As usually defined, the kinetic solubility is solubility judged after dilution from a stock solution rather than from solid. Consider `Cc1cc(O)c(C(=O)Nc2cccc(Cl)c2)c(=O)n1C`, for which the kinetic solubility was less than 0.3 µg/mL.
For the compound `CCCCOc1ccc(C(=O)OCC(=O)N2CCOCC2)cc1`, the solubility (kinetic) stood at 29.9 µg/mL (≈ 93 µM).
The compound `O=C(O)CC1(CC(=O)Nc2ccc3c(c2)OCCCO3)CCCCC1` returned a kinetic solubility of 50.6 µg/mL (≈ 146 µM). This solubility kinetic is about 1.7-fold higher than that of the compound before.
`COc1ccc2[nH]c(C(=O)Nc3ncc(C)cc3Br)cc2c1` showed a kinetic solubility of 6.1 µg/mL (≈ 16.9 µM). This solubility kinetic is about 8.3-fold lower than that of the compound before.
With `CC1CCCN(S(=O)(=O)c2cc(C(=O)NCc3ccco3)ccc2Cl)C1` (configuration not stated) the figure was 52.6 µg/mL (≈ 133 µM).
For the compound `CCOC(=O)NC(=O)CSc1nc2ccc([N+](=O)[O-])cc2[nH]1`, the solubility (kinetic) came out at 22 µg/mL (≈ 67.8 µM).
The compound `Cc1ccc(C(C)C)cc1S(=O)(=O)NCc1ccccn1` returned a kinetic solubility of more than 45.7 µg/mL.
With `CC(C)N1CCN(C2CSCCSC2)CC1CCO` (configuration not stated), the kinetic solubility was 42.7 µg/mL (≈ 140 µM).
For the compound `Br.COc1ccc(C2=CSC3=NCCN23)cc1`, the kinetic solubility is more than 47 µg/mL.
In turn, `O=C(Cc1ccsc1)NCc1ccccc1F` registered a solubility (kinetic) of more than 37.4 µg/mL.
The compound `Cc1ccc(C)c(CSCC(=O)NCc2cccs2)c1` came in with a kinetic solubility of 41.8 µg/mL (≈ 137 µM).
`O=C(Nc1ccc2c(c1)OCO2)c1ccccc1`: the solubility (kinetic) was more than 36.2 µg/mL.
As to `O=C(Nc1ccc2c(c1)OCO2)Nc1ccc(F)cc1F`, the solubility (kinetic) is 0.9 µg/mL (≈ 3.08 µM).
Regarding `S=c1[nH]c2cc(Cl)c3cccnc3c2o1`, the solubility (kinetic) was more than 35.5 µg/mL.
Under `CCOc1ncccc1C(=O)Nc1cccc(S(=O)(=O)N2CCOCC2)c1` stands 12 µg/mL (≈ 30.7 µM); under `N#Cc1ccccc1OCC(=O)NC1CCCCC1`, more than 38.7 µg/mL.
For the compound `CCCCN(CC)C(=O)c1cc2c(=O)[nH]c3ccc(C)cc3c2s1`, the kinetic solubility was found to be 0.5 µg/mL (≈ 1.46 µM).
With `O=C(CCC(=O)N1CCN(c2ccccc2F)CC1)c1ccc(Cl)s1`, the kinetic solubility stood at 19.5 µg/mL (≈ 51.2 µM). Compared with the last compound, the solubility kinetic is about 39-fold higher.
Turning to `Cc1cccc(C(=O)Nc2cc(NC(=O)c3cccs3)ccc2C)c1`, the solubility (kinetic) worked out at 2 µg/mL (≈ 5.71 µM).
Under `CCOC(=O)c1sc(NC(=O)C2CC(=O)N(c3ccc(C)cc3)C2)nc1C` (configuration not stated) stands 13 µg/mL (≈ 33.6 µM); under `CCc1ccc(NC(=O)C(=O)NCc2ccccn2)cc1`, 16.1 µg/mL (≈ 56.8 µM); under `CC1CN=C(NC(=O)c2cccc([N+](=O)[O-])c2)S1.Cl` (configuration not stated), 12.5 µg/mL.
Under `O=C(NCc1ccccc1)N1CCN(c2ccccc2)CC1` stands 16.2 µg/mL (≈ 54.8 µM); under `COCCn1c(SCC(=O)NNC(=O)c2ccccc2)nc2ccccc21`, more than 57.7 µg/mL; under `O=C(CNC(=O)C1CCCCC1)NC1CCCCC1`, more than 40 µg/mL.
The compound `CN(CC(=O)Nc1ccc(S(N)(=O)=O)cc1)C1CCCCC1` gave a solubility (kinetic) of more than 48.8 µg/mL.
As for `Cc1nc2oc3c(=O)[nH]cnc3c2c2c1COC(C)(C)C2`, the solubility (kinetic) amounted to 40 µg/mL (≈ 140 µM).
Compound `Cc1cccc(C)c1NC(=O)COC(=O)/C=C/c1ccc(S(=O)(=O)N2CCOCC2)cc1` showed a kinetic solubility of 2.2 µg/mL (≈ 4.8 µM).
The compound `C=CCN(CC=C)C(=S)Nc1ccc2nsnc2c1` yielded a solubility (kinetic) of more than 43.6 µg/mL.
Turning to `O=C1OCCC1Sc1nnc(-c2ccc(Cl)cc2Cl)o1` (configuration not stated), the kinetic solubility was more than 49.7 µg/mL.
Under `CC(=O)C1=C(O)C(=O)N(c2ccc(O)cc2)C1c1ccc(Cl)cc1` (configuration not stated) stands 42.6 µg/mL (≈ 124 µM).
With `Cc1cccc(NC(=O)CCN2CCC(C(N)=O)CC2)c1` the figure was 41.1 µg/mL (≈ 142 µM); with `O=C(NC1CC1)C(Cl)c1ccccc1` (configuration not stated), more than 31.5 µg/mL; with `CC(=O)CC(c1ccccc1)S(=O)(=O)c1ccc([N+](=O)[O-])cc1` (configuration not stated), more than 50 µg/mL.
Compound `COc1ccc(OC)c(/C=N/NC(=O)C(O)c2ccccc2)c1` (configuration not stated) showed a kinetic solubility of more than 47.2 µg/mL.
`C=CCOC(=O)C1=C(C)NC(=O)NC1c1ccc(N(C)C)cc1` (configuration not stated) showed a kinetic solubility of 5.8 µg/mL (≈ 18.4 µM).
Compound `Cc1ccc(C(=O)OCC(=O)NC(=O)Cc2ccccc2)c(O)c1` had a solubility (kinetic) of 12 µg/mL (≈ 36.7 µM).
`O=C1Nc2ccccc2C1Cc1ccccn1` (configuration not stated) gave a kinetic solubility of more than 33.6 µg/mL.
Take `O=C(CN1CCOCC1)Nc1nc(-c2ccc(Cl)cc2)cs1`: the solubility (kinetic) was more than 50.7 µg/mL.
In turn, `CCCCN(CC)C(=O)c1ccc(Cl)cc1` gave a solubility (kinetic) of 29.5 µg/mL (≈ 123 µM).
`COc1ccc(C(=O)Nc2ccc(C(=O)N3CCCCC3C)cc2)c(OC)c1OC` (configuration not stated) came in with a kinetic solubility of more than 61.9 µg/mL.
Consider `Nc1ccc(Oc2c(Cl)cccc2Cl)nc1`, for which the solubility (kinetic) was more than 38.3 µg/mL.
`O=C(Nc1cccc(Cl)c1)OCCOc1ccccc1` returned a kinetic solubility of less than 0.6 µg/mL.
`CCCCNC(=O)CSc1nc(O)cc(=O)n1C1CCCC1` returned a kinetic solubility of more than 48.8 µg/mL.
Under `CC(C)c1ccc(C(=O)NC(=S)Nc2ccc3[nH]c(=O)[nH]c3c2)cc1` stands 0.5 µg/mL (≈ 1.41 µM).
With `O=C(O)c1cccc([N+](=O)[O-])c1C(=O)Nc1ccc2ccccc2c1`, the solubility (kinetic) is 35.4 µg/mL (≈ 105 µM).
As for `COc1ccc(NC2=CC(=O)CC(C)(C)C2)cc1`, the kinetic solubility was more than 36.8 µg/mL.
In turn, `Cn1c(N)c(S(=O)(=O)N2CCCC2)c(=O)n(C)c1=O` returned a solubility (kinetic) of more than 43.2 µg/mL.
`O=C(NCC1CC1)Nc1cccc(Cl)c1` had a kinetic solubility of more than 33.7 µg/mL.
`O=C1COc2ccc(C(=O)COC(=O)CCOc3ccccc3)cc2N1`: the kinetic solubility turned out to be 10.1 µg/mL (≈ 28.4 µM).
Consider `Fc1ccc(NC(=S)Nc2cccnc2)c(F)c1F`, for which the kinetic solubility was more than 42.5 µg/mL.
With `CC(CN1CCCC1)OC(=O)c1ccc(Cl)cc1Cl.Cl` (configuration not stated) the figure was more than 50.8 µg/mL.
